# Measurements: patent publication US20220273571A1, “COMPOSITIONS OF PROBIOTICS AND BIOMASS AND METHODS FOR PROMOTING HEALTH IN A SUBJECT” (Commonwealth Scientific and Industrial Research Organisation, priority 2019, published 2022)
# What was measured:
# [1] = tested on: faecal slurries (gut microbiota); experiment: In vitro colonic fermentation, SCFA analysis by gas chromatography; conditions: 24 hrs fermentation, result in words (FIG. 2, FIG. 3)
# [2] = tested on: Lachnospiraceae (Dorea formicigenerans); experiment: In vitro colonic fermentation, 16S rRNA bacterial population analysis; format: cell-based; conditions: 24 h fermented samples versus Time 0 samples
# [3] = tested on: Paraprevotellaceae (Paraprevotella); experiment: as above; format: cell-based; conditions: 24 h fermented samples versus Time 0 samples
# [4] = tested on: Lachnospiraceae (Coprococcus); experiment: as above; format: cell-based; conditions: 24 h fermented samples versus Time 0 samples
# [5] = tested on: Veillonellaceae (Dialister); experiment: as above; format: cell-based; conditions: 24 h fermented samples versus Time 0 samples
# Ruminococcaceae = experiment: as above; format: cell-based; conditions: 24 h fermented samples versus Time 0 samples
# [6] = tested on: Ruminococcaceae (Oscillospira); experiment: as above; format: cell-based; conditions: 24 h fermented samples versus Time 0 samples
# [7] = tested on: Lachnospiraceae (Blautia); experiment: as above; format: cell-based; conditions: 24 h fermented samples versus Time 0 samples
# Erysipelotrichaceae = experiment: as above; format: cell-based; conditions: 24 h fermented samples versus Time 0 samples
# [8] = tested on: Clostridiaceae (Clostridium perfringens); format: cell-based; conditions: 24 h fermented samples versus Time 0 samples
# [9] = tested on: Lachnospiraceae (Roseburia faecis); experiment: In vitro colonic fermentation, 16S rRNA bacterial population analysis; format: cell-based; conditions: 24 h fermented samples versus Time 0 samples
# [10] = tested on: Ruminococcaceae (Ruminococcus); experiment: as above; format: cell-based; conditions: 24 h fermented samples versus Time 0 samples
# [11] = tested on: Coriobacteriaceae (Collinsella aerofaciens); experiment: as above; format: cell-based; conditions: 24 h fermented samples versus Time 0 samples
# [12] = tested on: Veillonellaceae (Veillonella dispar); experiment: as above; format: cell-based; conditions: 24 h fermented samples versus Time 0 samples
# [13] = tested on: Lachnospiraceae (Lachnospira); experiment: as above; format: cell-based; conditions: 24 h fermented samples versus Time 0 samples
# [14] = tested on: Bacteroidaceae (Bacteroides); experiment: as above; format: cell-based; conditions: 24 h fermented samples versus Time 0 samples
# [15] = tested on: Porphyromonadaceae (Parabacteroides distasonis); experiment: as above; format: cell-based; conditions: 24 h fermented samples versus Time 0 samples
# [16] = tested on: Lactobacillaceae (Lactobacillus reuteri); experiment: as above; format: cell-based; conditions: 24 h fermented samples versus Time 0 samples
# [17] = tested on: Bacillaceae (Bacillus coagulans); experiment: as above; format: cell-based; conditions: 24 h fermented samples versus Time 0 samples
# [18] = tested on: Enterobacteriaceae (Trabulsiella); experiment: as above; format: cell-based; conditions: 24 h fermented samples versus Time 0 samples
# [19] = pH of formulations in fermentation media before pH adjustment; format: physicochemical; conditions: 150 mg dried formulation in 10 mL fermentation media, before standardizing the starting pH at 6.8
# [20] = tested on: faecal slurries (gut microbiota); experiment: In vitro colonic batch fermentation, pH value; conditions: batch fermentation with faecal slurry, 37° C., starting pH adjusted
# [21] = tested on: Ruminococcaceae (Faecalibacterium prausnitzii); experiment: In vitro colonic fermentation, 16S rRNA bacterial population analysis; format: cell-based; conditions: 24 h fermented samples versus Time 0 samples
smiles,measurement,setting,value
"O=C(O[C@@H]1Cc2c(O)cc(O)cc2O[C@@H]1c1cc(O)c(O)c(O)c1)c1cc(O)c(O)c(O)c1 [EGCG, Epigallocatechin gallate]",total and individual SCFA production during fermentation,[1],significantly inhibited
same,"Log2 fold change of percentage abundance, Lachnospiraceae (Dorea formicigenerans)",[2],−1.47 Log2 fold change
same,"Log2 fold change of percentage abundance, Paraprevotellaceae (Paraprevotella)",[3],0.46 Log2 fold change
same,"Log2 fold change of percentage abundance, Lachnospiraceae (Coprococcus)",[4],−0.22 Log2 fold change
same,"Log2 fold change of percentage abundance, Veillonellaceae (Dialister)",[5],−0.32 Log2 fold change
same,"Log2 fold change of percentage abundance, Ruminococcaceae",Ruminococcaceae,−0.57 Log2 fold change
same,"Log2 fold change of percentage abundance, Ruminococcaceae (Oscillospira)",[6],−0.31 Log2 fold change
same,"Log2 fold change of percentage abundance, Lachnospiraceae (Blautia)",[7],−1.39 Log2 fold change
same,"Log2 fold change of percentage abundance, Erysipelotrichaceae",Erysipelotrichaceae,−1.30 Log2 fold change
same,"Log2 fold change of percentage abundance, Clostridiaceae (Clostridium perfringens)",[8],−0.79 Log2 fold change
same,"Log2 fold change of percentage abundance, Lachnospiraceae (Roseburia faecis)",[9],−0.11 Log2 fold change
same,"Log2 fold change of percentage abundance, Ruminococcaceae (Ruminococcus)",[10],−1.35 Log2 fold change
same,"Log2 fold change of percentage abundance, Coriobacteriaceae (Collinsella aerofaciens)",[11],−0.81 Log2 fold change
same,"Log2 fold change of percentage abundance, Veillonellaceae (Veillonella dispar)",[12],−0.58 Log2 fold change
same,"Log2 fold change of percentage abundance, Lachnospiraceae (Lachnospira)",[13],−0.28 Log2 fold change
same,"Log2 fold change of percentage abundance, Bacteroidaceae (Bacteroides)",[14],−0.13 Log2 fold change
same,"Log2 fold change of percentage abundance, Porphyromonadaceae (Parabacteroides distasonis)",[15],0.27 Log2 fold change
same,"Log2 fold change of percentage abundance, Lactobacillaceae (Lactobacillus reuteri)",[16],−0.37 Log2 fold change
same,"Log2 fold change of percentage abundance, Bacillaceae (Bacillus coagulans)",[17],−1.94 Log2 fold change
same,"Log2 fold change of percentage abundance, Enterobacteriaceae (Trabulsiella)",[18],0.58 Log2 fold change
same,pH,[19],7.16
same,pH at 24 hrs,[20],6.46 ± 0.05
same,"Log2 fold change of percentage abundance, Ruminococcaceae (Faecalibacterium prausnitzii)",[21],−0.81 Log2 fold change
